In brackets after ≈: the same amount, converted by molar mass.
Legend:
Staphylococcus aureus [1] = experiment: Antibacterial activity against vancomycin-intermediate resistant Staphylococcus aureus clinical isolate after 24 hrs by broth microdilution method; assay type: functional
Enterococcus faecium [2] = experiment: Antibacterial activity against vancomycin A-resistant Enterococcus faecium clinical isolate in presence of 30% bovine serum after 24 hrs by broth microdilution method; assay type: functional
[3] = Toxicity assessed as hemolysis in erythrocytes at 800 mg/L; assay type: cell-based, Erythrocyte; settings: human, read-out: Activity
Staphylococcus aureus [4] = experiment: Antibacterial activity against methicillin-resistant and vancomycin-intermediate resistant Staphylococcus aureus clinical isolate after 24 hrs by broth microdilution method; assay type: functional; settings: read-out: MIC
[5] = Toxicity assessed as hemolysis in erythrocytes at 200 mg/L; assay type: cell-based, Erythrocyte; settings: human, read-out: Activity
Enterococcus faecalis [6] = experiment: Antibacterial activity against vancomycin A-resistant Enterococcus faecalis after 24 hrs by broth microdilution method; assay type: functional; settings: read-out: MIC
Staphylococcus aureus [7] = experiment: Antibacterial activity against Staphylococcus aureus Smith after 24 hrs by broth microdilution method; assay type: functional; settings: read-out: MIC
Enterococcus faecalis [8] = experiment: Antibacterial activity against Enterococcus faecalis after 24 hrs by broth microdilution method; assay type: functional; settings: read-out: MIC
Escherichia coli = experiment: Antibacterial activity against Escherichia coli SKF-12140 after 24 hrs by broth microdilution method; assay type: functional; settings: read-out: MIC
[9] = Toxicity assessed as hemolysis in erythrocytes at 100 mg/L; assay type: cell-based, Erythrocyte; settings: human, read-out: Activity
Candida albicans = experiment: Antifungal activity against Candida albicans SKF-2270 after 24 hrs by broth microdilution method; assay type: functional; settings: read-out: MIC
[10] = Toxicity assessed as hemolysis in erythrocytes at 400 mg/L; assay type: cell-based, Erythrocyte; settings: human, read-out: Activity
Enterococcus faecium [11] = experiment: Antibacterial activity against Enterococcus faecium after 24 hrs by broth microdilution method; assay type: functional; settings: read-out: MIC
Staphylococcus aureus [12] = experiment: Antibacterial activity against Staphylococcus aureus Smith in presence of 30% bovine serum after 24 hrs by broth microdilution method; assay type: functional
Streptococcus pyogenes = experiment: Antibacterial activity against Streptococcus pyogenes C203 after 24 hrs by broth microdilution method; assay type: functional; settings: C203, 24 h, read-out: MIC
Enterococcus faecalis [13] = experiment: Antibacterial activity against vancomycin-resistant Enterococcus faecalis in presence of 30% bovine serum after 24 hrs by broth microdilution method; assay type: functional
Staphylococcus aureus [14] = experiment: Antibacterial activity against vancomycin-intermediate resistant Staphylococcus aureus clinical isolate in presence of 30% bovine serum after 24 hrs by broth microdilution method; assay type: functional
Staphylococcus aureus [15] = experiment: Antibacterial activity against methicillin-resistant Staphylococcus aureus clinical isolate after 24 hrs by broth microdilution method; assay type: functional; settings: read-out: MIC
[16] = Toxicity assessed as hemolysis in erythrocytes at 1600 mg/L; assay type: cell-based, Erythrocyte; settings: human, read-out: Activity
Enterococcus faecium [17] = experiment: Antibacterial activity against vancomycin A-resistant Enterococcus faecium clinical isolate after 24 hrs by broth microdilution method; assay type: functional; settings: read-out: MIC
[18] = Toxicity assessed as hemolysis in erythrocytes at 90 mg/L; assay type: cell-based, Erythrocyte; settings: human, erythrocytes; read-out: Activity
[19] = Toxicity assessed as hemolysis in erythrocytes at 180 mg/L; assay type: cell-based, Erythrocyte; settings: human, erythrocytes; read-out: Activity

Cc1ccccc1CC(=O)N[C@@H](CC(N)=O)C(=O)NC[C@@H]1C(=O)N[C@H](c2ccc(O)cc2)C(=O)N[C@H](CCCN)C(=O)N[C@H](C(C)C)C(=O)N[C@@H](c2ccc(O)cc2)C(=O)N[C@H](c2ccc(O)cc2)C(=O)N[C@@H]([C@@H](C)O)C(=O)N[C@@H](Cc2ccccc2)C(=O)N[C@H](CCCN)C(=O)N[C@@H](c2ccc(O[C@H]3O[C@H](CO)[C@@H](O)[C@H](O)[C@@H]3O[C@H]3O[C@H](CO)[C@@H](O)[C@H](O)[C@@H]3O)cc2)C(=O)N[C@H]([C@@H](C)O)C(=O)N[C@@H](c2ccc(O)cc2)C(=O)NCC(=O)N[C@@H](CC(C)C)C(=O)N[C@H](C)C(=O)N[C@@H](c2ccc(O)c(Cl)c2)C(=O)O[C@@H]1C(N)=O
MIC (Staphylococcus aureus [1]): 1 µg/mL (≈ 0.39 µM)
MIC (Enterococcus faecium [2]): 1 µg/mL
hemolysis at 800 mg/L [3]: 2%
MIC (Staphylococcus aureus [4]): 2 µg/mL (≈ 0.781 µM)
hemolysis at 200 mg/L [5]: 1%
MIC (Enterococcus faecalis [6]): 0.25 µg/mL (≈ 0.0976 µM)
MIC (Staphylococcus aureus [7]): ≤ 0.125 µg/mL
MIC (Enterococcus faecalis [8]): 0.5 µg/mL (≈ 0.195 µM)
MIC (Escherichia coli): > 128 µg/mL
hemolysis at 100 mg/L [9]: 1%
MIC (Candida albicans): > 128 µg/mL
hemolysis at 400 mg/L [10]: 1%
MIC (Enterococcus faecium [11]): 0.5 µg/mL (≈ 0.195 µM)
MIC (Staphylococcus aureus [12]): 0.25 µg/mL
MIC (Streptococcus pyogenes): ≤ 0.125 µg/mL
MIC (Enterococcus faecalis [13]): 0.5 µg/mL
MIC (Staphylococcus aureus [14]): 1 µg/mL
MIC (Staphylococcus aureus [15]): ≤ 0.125 µg/mL
hemolysis at 1600 mg/L [16]: 5%
MIC (Enterococcus faecium [17]): 0.5 µg/mL (≈ 0.195 µM)

CC(C)C[C@@H]1NC(=O)CNC(=O)[C@H](c2ccc(O)cc2)NC(=O)[C@@H]([C@@H](C)O)NC(=O)[C@H](c2ccc(O[C@H]3O[C@H](CO)[C@@H](O)[C@H](O)[C@@H]3O[C@H]3O[C@H](CO)[C@@H](O)[C@H](O)[C@@H]3O)cc2)NC(=O)[C@@H](CCCN)NC(=O)[C@H](Cc2ccccc2)NC(=O)[C@H]([C@@H](C)O)NC(=O)[C@@H](c2ccc(O)cc2)NC(=O)[C@H](c2ccc(O)cc2)NC(=O)[C@@H](C(C)C)NC(=O)[C@@H](CCCN)NC(=O)[C@@H](c2ccc(O)cc2)NC(=O)[C@@H](CNC(=O)[C@H](CC(N)=O)NC(=O)Cc2cccc3ccccc23)[C@@H](C(N)=O)OC(=O)[C@H](c2ccc(O)c(Cl)c2)NC(=O)[C@@H](C)NC1=O.Cl
MIC (Staphylococcus aureus [1]): 0.25 µg/mL
MIC (Enterococcus faecium [2]): 0.5 µg/mL
hemolysis at 800 mg/L [3]: 98%
MIC (Staphylococcus aureus [4]): 2 µg/mL
hemolysis at 200 mg/L [5]: 30%
MIC (Enterococcus faecalis [6]): ≤ 0.06 µg/mL
MIC (Staphylococcus aureus [7]): ≤ 0.06 µg/mL
MIC (Enterococcus faecalis [8]): ≤ 0.06 µg/mL
MIC (Escherichia coli): > 128 µg/mL
hemolysis at 90 mg/L [18]: 15%
hemolysis at 180 mg/L [19]: 28%
MIC (Candida albicans): > 128 µg/mL
hemolysis at 400 mg/L [10]: 60%
MIC (Enterococcus faecium [11]): 0.125 µg/mL
MIC (Staphylococcus aureus [12]): 0.25 µg/mL
MIC (Streptococcus pyogenes): ≤ 0.06 µg/mL
MIC (Enterococcus faecalis [13]): 0.25 µg/mL
MIC (Staphylococcus aureus [14]): 1 µg/mL
MIC (Staphylococcus aureus [15]): ≤ 0.06 µg/mL
MIC (Enterococcus faecium [17]): ≤ 0.06 µg/mL

CC/C=C/C=C\CC(=O)N[C@@H](CC(N)=O)C(=O)NC[C@@H]1C(=O)N[C@H](c2ccc(O)cc2)C(=O)N[C@H](CCCN)C(=O)N[C@H](C(C)C)C(=O)N[C@@H](c2ccc(O)cc2)C(=O)N[C@H](c2ccc(O)cc2)C(=O)N[C@@H]([C@@H](C)O)C(=O)N[C@@H](Cc2ccccc2)C(=O)N[C@H](CCCN)C(=O)N[C@@H](c2ccc(O[C@H]3O[C@H](CO)[C@@H](O)[C@H](O)[C@@H]3O[C@H]3O[C@H](CO)[C@@H](O)[C@H](O)[C@@H]3O)cc2)C(=O)N[C@H]([C@@H](C)O)C(=O)N[C@@H](c2ccc(O)cc2)C(=O)NCC(=O)N[C@@H](CC(C)C)C(=O)N[C@H](C)C(=O)N[C@@H](c2ccc(O)c(Cl)c2)C(=O)O[C@@H]1C(N)=O
MIC (Staphylococcus aureus [1]): 1 µg/mL (≈ 0.392 µM)
MIC (Enterococcus faecium [2]): 1 µg/mL
hemolysis at 800 mg/L [3]: 96%
MIC (Staphylococcus aureus [4]): 2 µg/mL (≈ 0.784 µM)
hemolysis at 200 mg/L [5]: 45%
MIC (Enterococcus faecalis [6]): 0.25 µg/mL (≈ 0.098 µM)
MIC (Staphylococcus aureus [7]): 0.25 µg/mL (≈ 0.098 µM)
MIC (Enterococcus faecalis [8]): 0.5 µg/mL (≈ 0.196 µM)
MIC (Escherichia coli): > 128 µg/mL
hemolysis at 100 mg/L [9]: 38%
MIC (Candida albicans): > 128 µg/mL
hemolysis at 400 mg/L [10]: 51%
MIC (Enterococcus faecium [11]): 0.5 µg/mL (≈ 0.196 µM)
MIC (Staphylococcus aureus [12]): 0.5 µg/mL
MIC (Streptococcus pyogenes): ≤ 0.125 µg/mL
MIC (Enterococcus faecalis [13]): 0.5 µg/mL
MIC (Staphylococcus aureus [14]): 2 µg/mL
MIC (Staphylococcus aureus [15]): 0.25 µg/mL (≈ 0.098 µM)
MIC (Enterococcus faecium [17]): 0.25 µg/mL (≈ 0.098 µM)

From ChEMBL document CHEMBL1145390, “Synthesis and preliminary biological characterization of new semisynthetic derivatives of ramoplanin” (J Med Chem, 2007)
